# Read-outs that look alike come from different tables or passages of the source.
# Tests used:
# [1] = test system: HIV-1 infection of TZM-bl cells; experiment: HIV-1 infectivity enhancement assay, β-galactosidase luminescence; assay type: cell-based; conditions: for Rel-EFC / Log10 Infection Rel EFC: 1.3 µM peptide; for Rel-EFC: infection relative to EF-C (QCKIKQIINMWQ = 1); for Log10 Infection Rel EFC: log10 of infection relative to EF-C; for Log Infectivity: Log10 infection relative to EF-C, TZM-bl cells, asymmetric std dev errors; for Log10 Infection Rel EF-C: HIV-1 infection of TZM-bl cells; for Log10 of Rel to EFC (Feb2021): Log10 of infection relative to EF-C, all peptides of FigS16; for Abs. Inf.: absolute infection signal, HIV-1 on TZM-bl cells, β-galactosidase luminescence; for Log10 Inf. rel. to EF-C: log10 of HIV-1 infection of TZM-bl cells relative to EF-C (EF-C = 0)
# [2] = assay type: physicochemical; parameters: key to Fibril / Fibril Formation / TEM 2cat / Fibril: 1 = fibrils present; 0 non-fibrillar structures; conditions: for Fibril / Fibril Formation: 1 mg/mL, uranyl acetate stain, qualitative
# [3] = β-sheet content by ATR-FT-IR; assay type: physicochemical; conditions: Fig. S7 panel A; β-sheet content by ATR-FT-IR
# Procedure, shortened: (§1)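 In the conversion assay, unconverted peptide passing a 3 kDa membrane at 4 °C was labelled with fluorescamine alongside unfiltered PNF, both in DMSO, and read at 365/470 nm after 20 min at room temperature. β-sheet content relied on ATR FT-IR of lyophilized fibril powder.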
# [4] = Zeta-potential measurement; assay type: physicochemical
# Procedure, shortened: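 PBS pH 7.4, 1 mg/mL peptide (DMSO stock), 1 d RT aggregation; diluted in 1 mM KCl pre-read; mobility → zeta (Smoluchowski); n = 3, 2 expts averaged.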
# [5] = Conversion rate (CR) assay with fluorescamine; assay type: physicochemical; parameters: key to CR: % = 100−100×filtrate/original fluorescence intensity; conditions: conversion rate, fluorescamine assay; for CR / %: Fig. S7 panel B
# Procedure, shortened: as §1
# [6] = Turbidity, derived count rate of scattered light; assay type: physicochemical; conditions: for Count Rate: derived count rate of scattered light (turbidity); for Log10 Count Rate: turbidity, derived count rate of scattered light, data of Figure 2D
# [7] = Fig. S7 panel A (plotted against β-sheet content)
# [8] = Fig. S7 panel B (plotted against CR), rounded to two decimals
# [9] = Log10 of infection rate relative to EF-C, Figure 3A source data
# [10] = infection rate relative to EF-C, log10, data of Figure 2D
# [11] = infection rate relative to EF-C, log10, source data of Figure 2C
# [12] = TEM, 1 = fibrils present, 0 = non-fibrillar
# [13] = TEM, 1 = fibrils present, 0 = non-fibrillar structures
# [14] = category: fibrils present or non-fibrillar
# [15] = zeta-potential of peptide, source data of Figure 2C
# [16] = zeta-potential of the peptide assemblies, mean, Figure 3A source data
# [17] = FigS12 panel A, fibril category by TEM
# [18] = zeta potential of peptide assemblies
Substance,Rel-EFC [1],Log10 Infection Rel EFC [1],"Log Infectivity [1, 7]","Log Infectivity [1, 8]","Log10 Infection Rel EF-C [1, 9]","Log10 Infection Rel EF-C [1, 10]","Log10 Infection Rel EF-C [1, 11]",Log10 Inf. rel. to EF-C [1],TEM 2cat ([2]; Fig S10 panel D),Fibril ([2]; Fig S10 panel E),Fibril / Fibril Formation ([2]; TEM),"Fibril [2, 12]","Fibril [2, 13]",b -sheet / % [3],"Zeta-Potential / mV [4, 15]","Zeta-Potential / mV [4, 16]",CR / % [5],CR [5],Count Rate [6],Log10 Count Rate [6],also measured
CKFKFQF,"1,23","0,09",0.09083,0.09,0.09,0.09083,0.09083,0.09083,1,1,1,1,1,47.43%,17.4 mV,19.73 mV,95.6%,95.56,5303,3.725,"Log10 of Rel to EFC (Feb2021) [1]: 0.09; Abs. Inf. [1]: 20066.66667; Abs. Infection at 0.26 µM ([1]; peptide 0.26 µM, mean of n = 3, Figure 4A): 5684; Abs. Infection at 1.3 µM ([1]; peptide 1.3 µM, mean of n = 3, Figure 4A): 20066.66667; TEM 2cat [2, 14]: 1; Zeta-Pot. [4]: 19.73; Zeta pot. / mV ([4]; zeta potential of the peptide assemblies): 19.73 mV"
RGDKIRGDKI,"0,01","-2,13",-2.126,-2.13,-2.13,-2.126,-2.126,-2.126,0,0,0,0,0,15.01%,-7.422 mV,-13.57 mV,48.4%,48.38,285.8,2.456,"Abs. Inf. [1]: 163.3; TEM 2cat [2, 17]: 0; Fibril ([2]; FigS12 panel B, TEM): 0; Zeta-Pot. [4]: -13.57"
KIKIQI,"0,07","-1,17",-1.169,-1.17,-1.17,-1.169,-1.169,-1.169,0,0,0,0,0,38.6%,-2.515 mV,-5.63 mV,18.9%,18.91,108.3,2.035,"TEM 2cat [2, 17]: 0; Fibril ([2]; FigS12 panel B, TEM): 0; Zeta-Pot. [4, 18]: -5.63"
HGDKCHGDKC,"0,01","-1,99",-1.991,-1.99,-1.99,-1.991,-1.991,-1.991,0,0,0,0,0,4.749%,-8.035 mV,-11.63 mV,37.4%,37.3627,12.43,1.095,"Abs. Inf. [1]: 263.3; TEM 2cat [2, 17]: 0; Fibril ([2]; FigS12 panel B, TEM): 0; Zeta-Pot. [4]: -11.63"
KNERIKNERI,"0,01","-1,89",-1.888,-1.89,-1.89,-1.888,-1.888,-1.888,0,0,0,0,0,37.95%,-11.61 mV,-16 mV,54.4%,54.36,321.9,2.508,"Abs. Inf. [1]: 143.3; TEM 2cat [2, 17]: 0; Fibril ([2]; FigS12 panel B, TEM): 0; Zeta-Pot. [4]: -16"
KIKIQINM,"0,36","-0,44",-0.4404,-0.44,-0.44,-0.4404,-0.4404,-0.4404,1,1,1,1,1,41%,10.17 mV,8.51 mV,64%,64,262.1,2.418,"Log10 of Rel to EFC (Feb2021) [1]: -0.44; TEM 2cat [2, 14]: 1; Zeta-Pot. [4, 18]: 8.51"
CKFKFQFNM,"1,24","0,09",0.09417,0.09,0.09,0.09417,0.09417,0.09417,1,1,1,1,1,41%,14.97 mV,15.13 mV,93.5%,93.52,2224,3.347,"Log10 of Rel to EFC (Feb2021) [1]: 0.09; Abs. Inf. [1]: 28183.33333; TEM 2cat [2, 14]: 1; Zeta-Pot. [4]: 15.13"
CEIEIQI,"0,03","-1,55",-1.554,-1.55,-1.55,-1.554,-1.554,-1.554,1,1,1,1,1,45%,-24.43 mV,-26.1 mV,59%,59,51.97,1.716,"Abs. Inf. [1]: 633.3; TEM 2cat [2, 17]: 1; Fibril ([2]; FigS12 panel B, TEM): 1; Zeta-Pot. [4]: -26.1"
HGEHGEHGE,"0,02","-1,72",-1.72,-1.72,-1.72,-1.72,-1.72,-1.72,0,0,0,0,0,6.271%,-14.63 mV,-24.2 mV,42.9%,42.88,340.4,2.532,"Abs. Inf. [1]: 360; TEM 2cat [2, 17]: 0; Fibril ([2]; FigS12 panel B, TEM): 0; Zeta-Pot. [4]: -24.2"
RGEKIKIQINM,"0,24","-0,61",-0.6134,-0.61,-0.61,-0.6134,-0.6134,-0.6134,1,1,1,1,1,38.16%,16.35 mV,15.3 mV,80.3%,80.28,594.6,2.774,"Log10 of Rel to EFC (Feb2021) [1]: -0.61; Abs. Inf. [1]: 7838; TEM 2cat [2, 14]: 1; Zeta-Pot. [4]: 15.3"
